Experiment: xn = mol fraction of the nth substance listed
Conditions: 100 kPa

C[C@H](N)C(=O)[O-].C[N+](C)(C)CCO + O
Conditions | viscosity [mPa·s]
287.92 K, x1 = 0.097 | 10.7
287.94 K, x1 = 0.198 | 60
288 K, x1 = 0.3748 | 345
288 K, x1 = 0.4948 | 710
288.02 K, x1 = 0.5975 | 1059
288.02 K, x1 = 0.8993 | 3070
288.06 K, x1 = 0.7994 | 2139
288.08 K, x1 = 0.692 | 1634
289.2 K, x1 = 0.198 | 57
289.22 K, x1 = 0.097 | 10.2
289.22 K, x1 = 0.3748 | 328
289.23 K, x1 = 0.2939 | 166
289.24 K, x1 = 0.4948 | 660
289.26 K, x1 = 0.8993 | 2817
289.29 K, x1 = 0.7994 | 1961
290.21 K, x1 = 1 | 4300
290.48 K, x1 = 0.198 | 53
290.48 K, x1 = 0.3748 | 300
290.5 K, x1 = 0.097 | 9.6
290.5 K, x1 = 0.4948 | 600
290.5 K, x1 = 0.5975 | 880
290.52 K, x1 = 0.8993 | 2510
290.54 K, x1 = 0.692 | 1293
291.71 K, x1 = 0.2939 | 140
291.71 K, x1 = 0.3748 | 274
291.72 K, x1 = 0.097 | 9.2
291.72 K, x1 = 0.198 | 50
291.72 K, x1 = 0.4948 | 540
291.72 K, x1 = 0.5975 | 790
291.73 K, x1 = 0.7994 | 1562
291.73 K, x1 = 0.8993 | 2231
291.74 K, x1 = 0.692 | 1150
292.02 K, x1 = 1 | 3052
292.32 K, x1 = 1 | 3520
292.91 K, x1 = 0.198 | 46
292.91 K, x1 = 0.2939 | 129
292.91 K, x1 = 0.3748 | 250
292.92 K, x1 = 0.7994 | 1393
292.92 K, x1 = 0.8993 | 1984
294.08 K, x1 = 1 | 2544
294.1 K, x1 = 0.198 | 43
294.1 K, x1 = 0.2939 | 119
294.1 K, x1 = 0.3748 | 230
294.1 K, x1 = 0.5975 | 650
294.1 K, x1 = 0.8993 | 1775
294.41 K, x1 = 1 | 2896
295.27 K, x1 = 0.097 | 8
295.27 K, x1 = 0.198 | 40.8
295.27 K, x1 = 0.2939 | 111
295.27 K, x1 = 0.3748 | 212
295.27 K, x1 = 0.4948 | 410
295.27 K, x1 = 0.5975 | 590
295.27 K, x1 = 0.692 | 840
295.27 K, x1 = 0.8993 | 1599
296.14 K, x1 = 1 | 2140
296.45 K, x1 = 0.097 | 7.7
296.45 K, x1 = 0.198 | 38.3
296.45 K, x1 = 0.2939 | 103
296.45 K, x1 = 0.3748 | 195
296.45 K, x1 = 0.5975 | 540
296.45 K, x1 = 0.692 | 760
296.45 K, x1 = 0.8993 | 1438
296.48 K, x1 = 1 | 2402
297.63 K, x1 = 0.198 | 36.2
297.63 K, x1 = 0.2939 | 96
297.63 K, x1 = 0.3748 | 181
297.63 K, x1 = 0.4948 | 347
297.63 K, x1 = 0.5975 | 490
297.63 K, x1 = 0.692 | 700
297.63 K, x1 = 0.7994 | 920
297.63 K, x1 = 0.8993 | 1302
298.2 K, x1 = 1 | 1806
298.54 K, x1 = 1 | 2000
298.8 K, x1 = 0.5975 | 450
298.8 K, x1 = 0.8993 | 1183
298.81 K, x1 = 0.097 | 7.1
298.81 K, x1 = 0.198 | 34.3
298.81 K, x1 = 0.3748 | 168
298.81 K, x1 = 0.4948 | 320
298.81 K, x1 = 0.692 | 630
299.98 K, x1 = 0.198 | 32.3
299.98 K, x1 = 0.2939 | 84
299.98 K, x1 = 0.4948 | 294
299.98 K, x1 = 0.5975 | 410
299.98 K, x1 = 0.692 | 580
299.98 K, x1 = 0.7994 | 760
299.98 K, x1 = 0.8993 | 1071
300.61 K, x1 = 1 | 1681
301.16 K, x1 = 0.097 | 6.6
301.16 K, x1 = 0.198 | 30.6
301.16 K, x1 = 0.2939 | 79
301.16 K, x1 = 0.3748 | 145
301.16 K, x1 = 0.4948 | 271
301.16 K, x1 = 0.5975 | 379
301.16 K, x1 = 0.7994 | 690
301.16 K, x1 = 0.8993 | 970
302.33 K, x1 = 0.198 | 29
302.33 K, x1 = 0.2939 | 74
302.33 K, x1 = 0.4948 | 251
302.33 K, x1 = 0.5975 | 348
302.33 K, x1 = 0.692 | 480
302.33 K, x1 = 0.7994 | 630
302.33 K, x1 = 0.8993 | 890
302.34 K, x1 = 0.097 | 6.4
302.34 K, x1 = 1 | 1310
302.66 K, x1 = 1 | 1421
303.51 K, x1 = 0.097 | 6.2
303.51 K, x1 = 0.198 | 27.6
303.51 K, x1 = 0.2939 | 69
303.51 K, x1 = 0.4948 | 233
303.51 K, x1 = 0.5975 | 322
303.51 K, x1 = 0.692 | 440
303.51 K, x1 = 0.8993 | 810
304.41 K, x1 = 1 | 1119
304.69 K, x1 = 0.097 | 6
304.69 K, x1 = 0.198 | 26.2
304.69 K, x1 = 0.2939 | 65
304.69 K, x1 = 0.3748 | 117
304.69 K, x1 = 0.4948 | 216
304.69 K, x1 = 0.5975 | 297
304.69 K, x1 = 0.692 | 410
304.69 K, x1 = 0.7994 | 530
304.69 K, x1 = 0.8993 | 740
305.86 K, x1 = 0.198 | 24.9
305.86 K, x1 = 0.2939 | 61
305.86 K, x1 = 0.5975 | 274
305.86 K, x1 = 0.692 | 375
305.86 K, x1 = 0.7994 | 480
305.87 K, x1 = 0.097 | 5.7
306.48 K, x1 = 1 | 960
306.78 K, x1 = 1 | 1030
307.04 K, x1 = 0.097 | 5.6
307.04 K, x1 = 0.198 | 23.7
307.04 K, x1 = 0.2939 | 58
307.04 K, x1 = 0.4948 | 186
307.04 K, x1 = 0.692 | 347
307.04 K, x1 = 0.7994 | 440
308.21 K, x1 = 0.4948 | 173
308.21 K, x1 = 0.5975 | 236
308.21 K, x1 = 0.692 | 321
308.22 K, x1 = 0.097 | 5.4
308.22 K, x1 = 0.198 | 22.6
308.22 K, x1 = 0.2939 | 54
308.22 K, x1 = 0.3748 | 96
308.22 K, x1 = 0.7994 | 410
308.22 K, x1 = 0.8993 | 570
308.54 K, x1 = 1 | 830
308.84 K, x1 = 1 | 880
310.61 K, x1 = 1 | 720
310.9 K, x1 = 1 | 760
312.67 K, x1 = 1 | 630
312.95 K, x1 = 1 | 660
314.74 K, x1 = 1 | 550
315.01 K, x1 = 1 | 570
316.82 K, x1 = 1 | 480
317.07 K, x1 = 1 | 500
318.91 K, x1 = 1 | 420
319.13 K, x1 = 1 | 440
321.04 K, x1 = 1 | 374
321.19 K, x1 = 1 | 387
323.25 K, x1 = 1 | 342

O + C[C@H](N)C(=O)[O-].C[N+](C)(C)CCO
x2 = 0
Conditions | viscosity [mPa·s]
288.09 K | 1.08
289.33 K | 1.05
290.56 K | 1.02
291.75 K | 0.98
292.93 K | 0.96
294.1 K | 0.93
295.28 K | 0.9
297.64 K | 0.86
298.81 K | 0.84
301.17 K | 0.8
302.34 K | 0.78
303.52 K | 0.77
304.69 K | 0.75
305.87 K | 0.74
308.22 K | 0.71
